Source: patent US7276527B2, “5-pyridyl-1,3-azole compounds, process for producing the same and use thereof” (Takeda Pharmaceutical Company Limited, priority 1999, dated 2007)

Biological target: T1, human adenosine A3 receptor (Homo sapiens, UniProt P0DMS8)
T1 construct: expressed in transfected cells; membrane fraction
T1 sequence (P0DMS8 1-318): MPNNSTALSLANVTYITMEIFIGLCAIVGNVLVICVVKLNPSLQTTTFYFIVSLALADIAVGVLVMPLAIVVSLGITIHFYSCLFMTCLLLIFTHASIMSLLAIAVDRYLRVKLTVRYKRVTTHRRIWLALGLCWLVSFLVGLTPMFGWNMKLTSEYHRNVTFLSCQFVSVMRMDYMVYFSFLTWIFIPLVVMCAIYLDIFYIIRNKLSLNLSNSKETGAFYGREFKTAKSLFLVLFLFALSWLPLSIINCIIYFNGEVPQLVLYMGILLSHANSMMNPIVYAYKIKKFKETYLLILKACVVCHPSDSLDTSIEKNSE
Experiment: Adenosine A3 receptor binding test
Conditions: membrane fraction of A3AR/CHO strain, [3H]-NECA 10 nM, room temperature 1 hour; read-out: IC50 (concentration necessary for decreasing an amount of binding of [3H]-NECA to the membrane fraction by 50%)
Method: Genetic procedures were according to a method described in Molecular Cloning, published by Cold Spring Harbor, Laboratory, 1989 or a method described in the attached protocol of the reagent.
1) Cloning of Human Adenosine A3 Receptor
Cloning of an adenosine A3 receptor gene was performed from human brain cDNA by a PCR method. A PCR reaction was performed with a DNA thermal cycler 480 (Perkin Elmer) by using 1 ng of brain cDNA (Toyobo, QUICK-Clone cDNA) as a template, adding each 50 pmol of a primer set 5′-[…]-3′ (SEQ ID NO: 1) and 5′-[…]-3′ (SEQ ID NO: 2) made by reference to adenosine A3 receptor gene base sequence reported by Salvatore et al. (Proc. Natl. Acad. Sci. U.S.A., 90:10365-10369, 1993) and employing Takara LA PCR Kit Ver. 2 (Takara Shuzo) (reaction conditions: 35 cycles of 1 minute at 95° C., 1 minute at 66° C., 2 minutes at 75° C.). The resulting PCR product was subjected to agarose gel electrophoresis and 1.0 kb of DNA fragment was recovered and, thereafter, an adenosine A3 receptor gene was cloned using Original TA Cloning Kit (Funakoshi).
Next, the resulting plasmid was digested with a restriction enzyme XbaI (Takara Shuzo), treated with T4 DNA polymerase (Takara Shuzo) into end-blunted fragments and further digested with SalI (Takara Shuzo) to obtain adenosine A3 receptor gene fragments.
2) Preparation of a Plasmid for Expressing of Human Adenosine A3 Receptor […]

| Compound | IC50 |
| --- | --- |
| Cc1cc(C)cc(-c2nc(N)sc2-c2ccnc(OCc3ccccc3)c2)c1 [Example 1, [4-(3,5-dimethylphenyl)-5-(2-phenylmethyloxy-4-pyridyl)-1,3-thiazol-2-yl]amine] | 11.6 nM |

System: TNF-α production in THP-1 cells
Experiment: Measurement of inhibiting activity of TNF-α production
Format: cell-based
Conditions: Homo sapiens, LPS 5 μg/mL, 4 hours, TNF-α in supernatant by ELISA, read-out: IC50 (concentration necessary for inhibiting TNF-α production by 50%)
Method: Measurement of Inhibiting Activity of TNF-α Production
After THP-1 cells which had been cultured on PRMI 1640 medium (manufactured by Life Technologies, Inc.) containing 1% non-activated bovine fetal serum (manufactured by Life Technologies, Inc., U.S.A.) and 10 mM HEPES (pH 7.5) seeded on a 96-well plate to 1×10^5 cells/well, 1 μL test compound dissolved in DMSO was added to there. After incubation at 37° C. for 1 hour in a CO2 incubator, LPS (Wako Pure Chemicals) was added to the final concentration 5 μg/mL. After cultured at 37° C. for 4 hours in a CO2 incubator, the supernatant was obtained by centrifugation. The concentration of TNF-α in the supernatant was measured with ELISA (R&D System, Quantikine Kit). The concentration (IC50 value) necessary for inhibiting TNF-α production by 50% was calculated by PRIMS 2.01 (Graphpad Software).

| Compound | IC50 |
| --- | --- |
| COc1ccc(-c2nc(NC(=O)c3cccnc3)sc2-c2ccnc(NC(=O)c3cccnc3)c2)cc1 [Example 3, N-[4-(4-methoxypheny)-5-[2-[(3-pyridylcarbonylamino)]-4-pyridyl]-1,3-thiazol-2-yl]nicotinamide] | 26 nM |
| COc1ccc(-c2nc(N)sc2-c2ccnc(NC(=O)c3ccccc3)c2)cc1 [Example 4, N-[4-[2-amino-4-(4-methoxyphenyl)-1,3-thiazol-5-yl]-2-pyridyl]benzamide] | 14 nM |
| Cc1cc(C)cc(-c2nc(N)sc2-c2ccnc(NCc3ccccc3)c2)c1 [Example 6, N-[4-[2-amino-4-(3,5-dimethylphenyl)-1,3-thiazol-5-yl]-2-pyridyl]benzylamine] | 140 nM |

System: not given
Experiment: not given
Conditions: not given

| Compound | melting point |
| --- | --- |
| Cc1cccc(-c2nc(-c3ccc(S(C)(=O)=O)cc3)sc2-c2ccnc(NC(=O)c3ccc4ccccc4c3)c2)c1 [Example Compound 21-4, N-[4-[4-(3-methylphenyl)-2-(4-methylsulfonylphenyl)-1,3-thiazol-5-yl]-2-pyridyl]-2-naphthamide] | 231 to 233 °C |
| Cc1cccc(-c2nc(-c3ccc(S(C)(=O)=O)cc3)sc2-c2ccnc(NCCCc3ccccc3)c2)c1 [Example Compound 21-6, N-[4-[4-(3-methylphenyl)-2-(4-methylsulfonylphenyl)-1,3-thiazol-5-yl]-2-pyridyl]-N-(3-phenylpropyl) amine] | 167 to 168 °C |
| Cc1cccc(-c2nc(-c3ccc(S(C)(=O)=O)cc3)sc2-c2ccnc(NCc3ccc4ccccc4c3)c2)c1 [Example Compound 21-7, N-[4-[4-(3-methylphenyl)-2-(4-methylsulfonylphenyl)-1,3-thiazol-5-yl]-2-pyridyl]-N-(2-naphthylmethyl)amine] | 167 to 168 °C |
| COc1ccc(CNc2cc(-c3sc(N)nc3-c3cccc(C)c3)ccn2)cc1 [Example Compound 23-1, N-[4-[2-amino-4-(3-methylphenyl)-1,3-thiazol-5-yl]-2-pyridyl]-N-(4-methoxybenzyl)amine] | 183 to 184 °C |
| COc1cccc(CNc2cc(-c3sc(N)nc3-c3cccc(C)c3)ccn2)c1 [Example Compound 23-2, N-[4-[2-amino-4-(3-methylphenyl)-1,3-thiazol-5-yl]-2-pyridyl]-N-(3-methoxybenzyl)amine] | 152 to 154 °C |
| COc1ccccc1CNc1cc(-c2sc(N)nc2-c2cccc(C)c2)ccn1 [Example Compound 23-3, N-[4-[2-amino-4-(3-methylphenyl)-1,3-thiazol-5-yl]-2-pyridyl]-N-(2-methoxybenzyl)amine] | 158 to 159 °C |
| Cc1cccc(-c2nc(N)sc2-c2ccnc(NCc3ccc(Cl)cc3)c2)c1 [Example Compound 23-4, N-[4-[2-amino-4-(3-methylphenyl)-1,3-thiazol-5-yl]-2-pyridyl]-N-(4-chlorobenzyl)amine] | 182 to 183 °C |
| Cc1cccc(-c2nc(N)sc2-c2ccnc(NCc3cccc(Cl)c3)c2)c1 [Example Compound 23-5, N-[4-[2-amino-4-(3-methylphenyl)-1,3-thiazol-5-yl]-2-pyridyl]-N-(3-chlorobenzyl)amine] | 180 to 181 °C |
| Cc1cccc(-c2nc(N)sc2-c2ccnc(N[C@H](C)c3ccccc3)c2)c1 [Example Compound 23-6, (R)-N-[4-[2-amino-4-(3-methylphenyl)-1,3-thiazol-5-yl]-2-pyridyl]-N-(1-phenylethyl)amine] | 94 to 98 °C |
| Cc1cccc(-c2nc(N)sc2-c2ccnc(N[C@@H](C)c3ccccc3)c2)c1 [Example Compound 23-7, (S)-N-[4-[2-amino-4-(3-methylphenyl)-1,3-thiazol-5-yl]-2-pyridyl]-N-(1-phenylethyl)amine] | 93 to 96 °C |
| Cc1cccc(-c2nc(N)sc2-c2ccnc(N(C)Cc3ccccc3)c2)c1 [Example Compound 23-8, N-[4-[2-amino-4-(3-methylphenyl)-1,3-thiazol-5-yl]-2-pyridyl]-N-benzyl-N-methylamine] | 138 to 140 °C |
| COc1cccc(-c2nc(N)sc2-c2ccnc(NCc3ccccc3)c2)c1 [Example Compound 24, N-[4-[2-amino-4-(3-methoxyphenyl)-1,3-thiazol-5-yl]-2-pyridyl]-N-benzylamine] | 217 to 218 °C |
| Cc1cccc(-c2nc(-c3ccc(S(C)(=O)=O)cc3)sc2-c2ccnc(NCc3ccc(F)cc3)c2)c1 [Example Compound 25-2, N-(4-fluorobenzyl)-N-[4-[4-(3-methylphenyl)-2-(4-methylsulfonylphenyl)-1,3-thiazol-5-yl]-2-pyridyl]amine] | 155 to 158 °C |
| Cc1cccc(-c2nc(-c3ccc(S(C)(=O)=O)cc3)sc2-c2ccnc(N(C)Cc3ccccc3)c2)c1 [Example Compound 25-3, N-benzyl-N-methyl-N-[4-[4-(3-methylphenyl)-2-(4-methylsulfonylphenyl)-1,3-thiazol-5-yl]-2-pyridyl]amine] | 165 to 166 °C |
| Cc1cccc(-c2nc(-c3ccc(S(C)(=O)=O)cc3)sc2-c2ccnc(N(C)CCc3ccccc3)c2)c1 [Example Compound 25-4, N-methyl-N-[4-[4-(3-methylphenyl)-2-(4-methylsulfonylphenyl)-1,3-thiazol-5-yl]-2-pyridyl]-N-(2-phenylethyl)amine] | 116 to 117 °C |
| Cc1cccc(-c2nc(-c3ccc(S(C)(=O)=O)cc3)sc2-c2ccnc(NCc3cccs3)c2)c1 [Example Compound 25-5, N-[4-[4-(3-methylphenyl)-2-(4-methylsulfonylphenyl)-1,3-thiazol-5-yl]-2-pyridyl]-N-(2-thienylmethyl)amine] | 107 to 109 °C |
